Where only a bound is given, the exact number is not on record here.

Experimental findings from ChEMBL document CHEMBL3871307, “Discovery of Chromane Propionic Acid Analogues as Selective Agonists of GPR120 with in Vivo Activity in Rodents” (ACS Med Chem Lett, 2017) are described below.

The nature of data set [1]: Intrinsic clearance in rat plasma at 1 mg/kg, iv or 2 mg/kg, po by LC/MS/MS analysis. It counts as ADME, organism-based. Conditions: in vivo.
The nature of data set [2]: Volume of distribution at steady state in rat plasma at 0.1 mg/kg administered as iv casette dose by LC/MS/MS analysis. It counts as ADME, organism-based. The conditions noted are these: read-out: Vdss.
Another data set has as its target Cytochrome P450 2D6 (Homo sapiens, UniProt P10635). The data set is described as follows: Inhibition of human CYP2D6. It counts as ADME.
The nature of data set [3]: AUC in mouse plasma at 2 mg/kg, iv by LC/MS/MS analysis. It is filed as ADME, organism-based.

Sequence of Cytochrome P450 2D6 (P10635 whole entry): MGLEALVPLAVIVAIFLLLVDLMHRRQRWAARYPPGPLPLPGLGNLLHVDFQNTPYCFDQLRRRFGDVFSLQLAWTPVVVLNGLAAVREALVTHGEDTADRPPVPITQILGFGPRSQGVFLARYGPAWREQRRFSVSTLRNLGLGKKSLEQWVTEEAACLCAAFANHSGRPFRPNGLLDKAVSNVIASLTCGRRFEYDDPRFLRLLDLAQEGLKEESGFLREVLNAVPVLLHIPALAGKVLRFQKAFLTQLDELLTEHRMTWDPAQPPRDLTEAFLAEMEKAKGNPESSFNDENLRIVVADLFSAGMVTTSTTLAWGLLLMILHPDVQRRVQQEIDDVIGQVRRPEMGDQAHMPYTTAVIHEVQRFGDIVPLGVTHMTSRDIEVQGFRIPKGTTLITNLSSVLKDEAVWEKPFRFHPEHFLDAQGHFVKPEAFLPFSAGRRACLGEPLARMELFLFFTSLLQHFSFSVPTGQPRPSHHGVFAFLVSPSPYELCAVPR

With `CO[C@H]1C[C@H](Oc2cc(F)c(F)c(-c3ccc4c(c3)CC[C@H](CCC(=O)O)O4)n2)C1`, in data set [1], the CL was determined as 470 mL/min/kg. Also, the Vd in data set [2] came to 0.24 L/kg. Besides, at Cytochrome P450 2D6, the IC50 was more than 50 µM. For the same molecule, the AUC in data set [3] was 8.1 µM·h.

As a reminder, the IC50 is the point on the concentration scale where inhibition reaches its midpoint. A higher IC50 goes with weaker potency in that assay. Usually AUC stands for concentration integrated over time. A high value points to high exposure.
